# Results taken from publication PMC10804407, “Rombocin, a Short Stable Natural Nisin Variant, Displays Selective Antimicrobial Activity against Listeria monocytogenes and Employs a Dual Mode of Action to Kill Target Bacterial Strains” (ACS Synthetic Biology, 2024).
# Like-named read-outs stand apart in the source and are kept apart here. Primed or numbered codes have the meaning given here. Where no end group is shown, it is not given here. [ ]: non-standard residue; d: D form. Dhb′ = not defined here; Dha = C=C(N)C(=O)O
# How the values were obtained:
# [1] = system: Bacillus cereus CH-85; type: cell-based
# Method: (§1) Each experiment was performed in triplicate.
# [2] = system: E. faecalis LMG16216 (VRE); type: cell-based, Enterococcus faecalis
# Method: as §1
# [3] = system: L. monocytogenes LK132; type: cell-based, Listeria monocytogenes
# Method: as §1
# [4] = system: L. monocytogenes TT82E; type: cell-based, Listeria monocytogenes
# Method: as §1
# [5] = system: L. monocytogenes LMG10470; type: cell-based, Listeria monocytogenes
# Method: as §1
# [6] = system: L. lactis; experiment: Membrane potential determination (DiSC3(5) probe); type: cell-based, Lactococcus lactis; settings: 5× MIC, 10 mM HEPES with 10 mM glucose pH 7.2, 2 μM DiSC3(5), 25 min
# Method: To measure the membrane potential, the membrane potential-sensitive fluorescent dye DiSC3(5) was utilized. L. lactis was cultured to an OD600 of 0.8, pelleted at 5000g for 5 min, and washed twice in 10 mM HEPES with 10 mM glucose (pH 7.2). The cell density was adjusted to an OD600 of 0.2 and loaded with 2 μM DiSC3(5) dye, followed by 20 min of incubation in the dark to stabilize the probe fluorescence. Next, the cell suspension was added to a 96-well microplate and incubated for 5 min with 100 mM KCl. […] The fluorescence spectrometer’s excitation and emission wavelengths were adjusted to 622 and 670 nm, respectively. Three technical replicates were performed, and the representative example is shown.
# [7] = system: L. lactis; experiment: Potassium ion efflux assay (PBFI probe); type: cell-based, Lactococcus lactis; settings: 5× MIC, 10 mM HEPES pH 7.2 with 0.5% glucose, 10 μM PBFI
# Method: To perform the K^+ release assay, we used the K^+-specific fluorescent probe PBFI. L. lactis was cultured in GM17 until the OD600 reached 0.6, after which the cells were harvested (5000g, 5 min) and washed twice with 10 mM HEPES (pH 7.2) with 0.5% glucose. The cells were then resuspended in the same buffer containing 10 μM PBFI. Data were analyzed using a Varioskan LUX Multimode Microplate Reader; cells were excited at 346 nm, and the fluorescence emission was measured at 505 nm to establish a baseline signal before the addition of 5-fold MIC antibiotics, after which data were collected. Nisin was used as a positive control.
# [8] = system: L. lactis; experiment: Fluorescence microscopy assay of membrane integrity (SYTO 9 / propidium iodide); type: cell-based, Lactococcus lactis; settings: 5× MIC, 15 min / 20 min (method), room temperature
# Method: L. lactis was cultured until it reached an OD600 of 0.8 and then pelleted at 8000g for 5 min and washed three times in 0.7% NaCl. The cell density was normalized to an OD600 of 0.4 in 0.7% NaCl, and a concentration of 5-fold MIC value of each tested antibiotic was added to the cell suspension simultaneously with SYTO 9 and propidium iodide using the LIVE/DEAD Baclight Bacterial Viability Kit (Invitrogen). After incubation at room temperature for 20 min, the compounds were removed by washing the cells with 0.7% NaCl. Finally, the cell suspensions were loaded onto 1.5% agarose pads and analyzed with a DeltaVision Elite microscope (Applied Precision).
# [9] = system: S. aureus LMG15975 (MRSA); type: cell-based, Staphylococcus aureus
# Method: as §1
# [10] = system: S. aureus LMG10147; type: cell-based, Staphylococcus aureus
# Method: as §1
# [11] = system: E. faecium LMG16003 (VRE); type: cell-based, Enterococcus faecium
# Method: as §1
# [12] = system: E. faecium LMG11423; type: cell-based, Enterococcus faecium
# Method: as §1
# [13] = system: trypsin, chymotrypsin, and proteinase K; experiment: Stability against proteolytic enzymes by residual antimicrobial activity; type: in vitro ADME; settings: 40 μL peptide (1 mg/mL) with 1 mg/mL proteolytic enzymes, room temperature, 3 h; residual activity in agar well vs L. lactis 1363; triplicate
# Method: To investigate the impact of proteolytic enzymes, pH, and temperature on the antimicrobial activity, a representative strain of L. lactis 1363 was utilized. For the proteolytic enzyme assay, 40 μL of peptide (1 mg/mL) was incubated with or without final concentrations of 1 mg/mL proteolytic enzymes at room temperature for 3 h, followed by an activity test in the agar well. To determine pH stability, the pH was adjusted to 2, 4, 7, and 10 using 1 M HCl or NaOH. The temperature stability was assessed by incubating the peptide at 22, 50, 70, and 90 °C for a specified duration. All experiments were performed in triplicate.
# Overnight cultures of the test strains were inoculated at a final concentration of 0.1% (v/v) into melted LB agar at 45 °C and then poured onto plates. After solidification, 8 mm wells were created and filled with 40 μL of the lantibiotic solution (1 mg/mL). The lantibiotics were activated by adding 5 μL of NisP directly to the well. The plates were then incubated overnight at 30 °C, and the zone of inhibition was measured. Zone diameters were calculated by subtracting the area of the well (πr^2) from the area of the zone (πr^2) and reported in millimeters. To determine the peptide concentration, purified and lyophilized peptides were resuspended in 0.05% aqueous acetic acid solution and quantified by HPLC following the protocol described by Schmitt et al.[44] […]
# [14] = system: L. lactis MG1363; type: cell-based, Lactococcus lactis
# Method: as §1
# [15] = system: L. lactis MG1363; experiment: Time-kill assay; type: cell-based, Lactococcus lactis; settings: L. lactis, 5-fold MIC, time-dependent killing
# Method: The bactericidal activity of nisin, nisin(1–22), and rombocin was evaluated according to a previously described procedure based on Guo et al.[38] Briefly, an overnight culture of L. lactis MG1363 was diluted 50-fold in GM17 medium and incubated at 30 °C. The bacteria were grown until reaching an optical density at 600 nm (OD600) of 0.5, at which point the cell concentration was adjusted to 5 × 10^5 CFU/mL. Subsequently, the bacteria were challenged with a 5-fold MIC of each peptide. A control sample of an untreated cell suspension was included. At specific time points, 50 μL aliquots were collected, and undiluted and 10-fold serially diluted suspensions were plated on GM17 agar. The plates were incubated overnight at 30 °C, and the resulting colonies were counted and calculated as colony-forming units per milliliter (CFU/mL). Both assays were performed in triplicate to ensure reproducibility.
# [16] = system: L. monocytogenes LMG10470; experiment: Agar well diffusion assay and mutant-activity test; type: cell-based, Listeria monocytogenes; settings: 40 μL of 1 mg/mL, zone of inhibition, triplicate
# Method: Overnight cultures of the test strains were inoculated at a final concentration of 0.1% (v/v) into melted LB agar at 45 °C and then poured onto plates. After solidification, 8 mm wells were created and filled with 40 μL of the lantibiotic solution (1 mg/mL). The lantibiotics were activated by adding 5 μL of NisP directly to the well. The plates were then incubated overnight at 30 °C, and the zone of inhibition was measured. Zone diameters were calculated by subtracting the area of the well (πr^2) from the area of the zone (πr^2) and reported in millimeters. To determine the peptide concentration, purified and lyophilized peptides were resuspended in 0.05% aqueous acetic acid solution and quantified by HPLC following the protocol described by Schmitt et al.[44] All experiments were performed in triplicate.
compound,measurement,setting,value
"C=C(NC(=O)[C@@H](NC(=O)[C@H](Cc1c[nH]cn1)NC(=O)[C@@H](NC(=O)[C@H](CO)NC(=O)[C@@H]1CS[C@@H](C)[C@H]2NC(=O)[C@H](C)NC(=O)[C@H](NC(=O)[C@H](CCCCN)NC(=O)[C@H](CCSC)NC(=O)[C@H](CC(N)=O)NC(=O)[C@@H]3CS[C@@H](C)[C@@H](NC(=O)[C@H](CCCCN)NC(=O)[C@@H]4CS[C@@H](C)[C@@H](NC(=O)[C@@H]5CSC[C@@H](NC(=O)/C(=C/C)NC(=O)[C@@H](N)[C@@H](C)CC)C(=O)N[C@@H]([C@@H](C)CC)C(=O)NC(=C)C(=O)N[C@@H](CC(C)C)C(=O)N5)C(=O)N5CCC[C@H]5C(=O)NCC(=O)N4)C(=O)NCC(=O)N[C@@H](C)C(=O)N[C@@H](CC(C)C)C(=O)N[C@@H](CCSC)C(=O)NCC(=O)N3)[C@H](C)SC[C@H](NC2=O)C(=O)N[C@@H](CC(N)=O)C(=O)N1)[C@@H](C)CC)C(C)C)C(=O)N[C@@H](CCCCN)C(=O)O [nisin Z, reference compound]",MIC,"[1]; Bacillus cereus CH-85, broth microdilution, no visible growth, triplicate","6,25 μg/mL"
same,fold lower MIC of nisin than rombocin A,[1]; against Bacillus cereus,4 fold
same,MIC,"[2]; E. faecalis LMG16216 (VRE), broth microdilution, no visible growth, triplicate","3,13 μg/mL"
same,fold lower MIC of nisin than rombocin A,[2]; against Enterococcus faecalis,16 fold
same,MIC,"[3]; L. monocytogenes LK132, broth microdilution, no visible growth, triplicate","12,5 μg/mL"
same,fold lower MIC of nisin than rombocin A,[3]; against L. monocytogenes LK132,2 fold
same,MIC,"[4]; L. monocytogenes TT82E, broth microdilution, no visible growth, triplicate","1,56 μg/mL"
same,MIC,"[5]; L. monocytogenes LMG10470, broth microdilution, no visible growth, triplicate","3,13 μg/mL"
same,membrane depolarization (DiSC3(5) fluorescence),[6],"significant membrane depolarization, similar to nisin"
same,release of intracellular potassium ions (PBFI fluorescence),[7],immediate increase in signal
same,membrane integrity (SYTO 9 / propidium iodide fluorescence),[8],membrane disruption
same,MIC,"[9]; S. aureus LMG15975 (MRSA), broth microdilution, no visible growth, triplicate","6,25 μg/mL"
same,MIC,"[10]; S. aureus LMG10147, broth microdilution, no visible growth, triplicate","6,25 μg/mL"
same,fold lower MIC of nisin than rombocin A,[10]; against S. aureus (strain not given),16 fold
same,MIC,"[11]; E. faecium LMG16003 (VRE), broth microdilution, no visible growth, triplicate","3,13 μg/mL"
same,MIC,"[12]; E. faecium LMG11423, broth microdilution, no visible growth, triplicate","3,13 μg/mL"
same,fold higher antimicrobial activity of nisin than rombocin A (MIC),[12]; against Enterococcus faecium (strain not given),32 times
same,resistance to proteolytic enzymes,[13],varying stability
same,MIC,"[14]; L. lactis MG1363, broth microdilution, lowest concentration with no visible growth, triplicate","0,02 μg/mL"
same,fold lower MIC of nisin than that of rombocin,[14]; against L. lactis,40 times
"nisin(1–22): truncated nisin variant, bacteriostatic control that only binds lipid II (I[Dhb′]SI[Dha]LCTPGCKTGALMGCNMK; also: lantibiotic: thioether rings and dehydrated residues not placed; UniProt P13068 24-45, looked up, fragment)",membrane depolarization (DiSC3(5) fluorescence),[6],did not
same,release of intracellular potassium ions (PBFI fluorescence),[7],did not have this effect
same,membrane integrity (SYTO 9 / propidium iodide fluorescence),[8],did not cause any significant membrane disruption
same,bacteriostatic or bactericidal activity,[15],bacteriostatic effect
C=C1NC(=O)[C@H]([C@@H](C)CC)NC(=O)[C@H](NC(=O)/C(=C/C)NC(=O)[C@@H](N)[C@@H](C)CC)CSC[C@@H](C(=O)N[C@H]2C(=O)N[C@@H](C)C(=O)NCC(=O)N[C@H](C(=O)N[C@@H](CCCCN)C(=O)N[C@H]3C(=O)NCC(=O)N[C@@H](C(C)C)C(=O)N[C@@H]([C@@H](C)CC)C(=O)N[C@@H](CCSC)C(=O)N/C(=C\C)C(=O)N[C@H](C(=O)N[C@@H](CCSC)C(=O)N[C@@H]4CSC[C@@H](C(=O)N[C@@H](CCCCN)C(=O)O)NC(=O)CNC(=O)[C@H](CC(N)=O)NC4=O)CS[C@H]3C)CS[C@H]2C)NC(=O)[C@H](CC(C)C)NC1=O [rombocin K],MIC,[1]; CH-85,25 µg/mL
same,MIC,[2]; LMG16216,50 µg/mL
same,MIC,[3]; LK132,"12,5 μg/mL"
same,MIC,[4]; TT82E,"6,25 μg/mL"
same,MIC,[5]; LMG10470,"12,5 μg/mL"
same,fold lower MIC compared to the wild-type rombocin,[5]; against all tested Listeria strains,2 fold
same,MIC,[9]; LMG15975,100 µg/mL
same,MIC,[10]; LMG10147,100 µg/mL
same,MIC,[11]; LMG16003,50 µg/mL
same,MIC,[12]; LMG11423,50 µg/mL
same,increase in antimicrobial activity relative to wild-type rombocin,[16],13%
same,MIC,[14]; MG1363,"0,78 μg/mL"
